Laboratory results published in patent US20040001845A1, “Cytotoxic T-cell epitopes of HIV-1 virus” (priority 2002, published 2004).

Tested on: PBMC (HIV-1-specific CD8+ T cells) of subject AC-06
Assay: IFN-γ Elispot assay of HIV-1-specific CD8+ T cell responses in subject AC-06
Assay type: cell-based, human
[1] = subject AC-06, 0 months after infection
[2] = subject AC-06, 2 months after infection
[3] = subject AC-06, 6 months after infection
[4] = subject AC-06, 12 months after infection
[5] = subject AC-06, 18 months after infection
[6] = subject AC-06, 20 months after infection
[7] = subject AC-06, 24 months after infection
[8] = subject AC-06, 29.5 months after infection
[9] = subject AC-06, 34 months after infection

Row | Sequence | magnitude of HIV-1-specific CD8+ T cell responses at the single epitope level [1] | magnitude of HIV-1-specific CD8+ T cell responses at the single epitope level [2] | magnitude of HIV-1-specific CD8+ T cell responses at the single epitope level [3] | magnitude of HIV-1-specific CD8+ T cell responses at the single epitope level [4] | magnitude of HIV-1-specific CD8+ T cell responses at the single epitope level [5] | magnitude of HIV-1-specific CD8+ T cell responses at the single epitope level [6] | magnitude of HIV-1-specific CD8+ T cell responses at the single epitope level [7] | magnitude of HIV-1-specific CD8+ T cell responses at the single epitope level [8] | magnitude of HIV-1-specific CD8+ T cell responses at the single epitope level [9]
1 | RLRDLLLIVTR [A3-RR11] | 0 SFC/Million PBMC | 0 SFC/Million PBMC | 0 SFC/Million PBMC | 0 SFC/Million PBMC | 0 SFC/Million PBMC | 0 SFC/Million PBMC | 260 SFC/Million PBMC | 230 SFC/Million PBMC | 320 SFC/Million PBMC
2 | RPMTYKAAL [B7-RL9] | 0 SFC/Million PBMC | 0 SFC/Million PBMC | 0 SFC/Million PBMC | 0 SFC/Million PBMC | 0 SFC/Million PBMC | 120 SFC/Million PBMC | 180 SFC/Million PBMC | 600 SFC/Million PBMC | 360 SFC/Million PBMC
3 | TPQDLNTML [B7-TL9] | 0 SFC/Million PBMC | 0 SFC/Million PBMC | 0 SFC/Million PBMC | 0 SFC/Million PBMC | 0 SFC/Million PBMC | 0 SFC/Million PBMC | 0 SFC/Million PBMC | 740 SFC/Million PBMC | 1300 SFC/Million PBMC
4 | KLVDFRELNK [A3-KK10] | 0 SFC/Million PBMC | 0 SFC/Million PBMC | 0 SFC/Million PBMC | 0 SFC/Million PBMC | 0 SFC/Million PBMC | 0 SFC/Million PBMC | 70 SFC/Million PBMC | 1200 SFC/Million PBMC | 1800 SFC/Million PBMC
5 | HMYISKKAK [A3-HK9] | 0 SFC/Million PBMC | 0 SFC/Million PBMC | 0 SFC/Million PBMC | 0 SFC/Million PBMC | 0 SFC/Million PBMC | 110 SFC/Million PBMC | 320 SFC/Million PBMC | 1000 SFC/Million PBMC | 1600 SFC/Million PBMC
6 | GIPHPAGLK [A3-GK9] | 0 SFC/Million PBMC | 0 SFC/Million PBMC | 0 SFC/Million PBMC | 0 SFC/Million PBMC | 0 SFC/Million PBMC | 0 SFC/Million PBMC | 0 SFC/Million PBMC | 240 SFC/Million PBMC | 1800 SFC/Million PBMC
7 | RIRTWKSLVK [A3-RK10] | 0 SFC/Million PBMC | 0 SFC/Million PBMC | 0 SFC/Million PBMC | 0 SFC/Million PBMC | 0 SFC/Million PBMC | 180 SFC/Million PBMC | 270 SFC/Million PBMC | 1100 SFC/Million PBMC | 1600 SFC/Million PBMC
